Experimental data: patent US20080009418A1, “Selective Inhibitors” (Alchemia LTD., priority 2004, published 2008)

Columns and labels:
Conditions in all cases: compound at 10 μM
[1] = biological target: T1, Mouse urotensin (mUR2) (Mus musculus, UniProt Q8VIH9); test: Radioligand binding, mouse urotensin mUR2 membranes, FlashPlate, [125I]-Urotensin II
T1 construct: purchased Perkin Elmer Biosignal
T1 sequence (Q8VIH9 1-385): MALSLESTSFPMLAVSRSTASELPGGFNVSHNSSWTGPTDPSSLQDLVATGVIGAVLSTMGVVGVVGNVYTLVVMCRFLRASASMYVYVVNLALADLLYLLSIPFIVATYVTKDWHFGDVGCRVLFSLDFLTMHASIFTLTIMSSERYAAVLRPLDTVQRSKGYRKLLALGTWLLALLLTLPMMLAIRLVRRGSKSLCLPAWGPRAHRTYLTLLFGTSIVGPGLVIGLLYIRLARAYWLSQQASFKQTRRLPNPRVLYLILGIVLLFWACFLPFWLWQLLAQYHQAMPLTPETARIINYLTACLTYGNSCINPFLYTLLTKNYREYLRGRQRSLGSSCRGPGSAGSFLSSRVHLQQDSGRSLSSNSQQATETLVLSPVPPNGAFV
In short: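 Cloned mouse urotensin (mUR2) receptor membranes from Perkin Elmer Biosignal were immobilized in FlashPlate microplates using a proprietary coating. Each well got 19.5 μl buffer, then 0.5 μl of DMSO, reference ligand, or compound. Adding 5 μl of [125I]-Urotensin II, diluted to 5× final concentration in binding buffer, started binding. Plates were sealed with TopSeal-A and incubated 1 hour at room temperature in the dark. Wells were counted for 30 seconds each on a TopCount after a 60-second delay, and percentage inhibition was calculated.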

[2] = biological target: T2, Human Melanocortin (MC3) (Homo sapiens, UniProt P41968); test: Radioligand binding, human melanocortin MC3 membranes, FlashPlate, [125I]-NDP-αMSH
T2 construct: purchased Perkin Elmer Biosignal
T2 sequence (P41968 whole entry): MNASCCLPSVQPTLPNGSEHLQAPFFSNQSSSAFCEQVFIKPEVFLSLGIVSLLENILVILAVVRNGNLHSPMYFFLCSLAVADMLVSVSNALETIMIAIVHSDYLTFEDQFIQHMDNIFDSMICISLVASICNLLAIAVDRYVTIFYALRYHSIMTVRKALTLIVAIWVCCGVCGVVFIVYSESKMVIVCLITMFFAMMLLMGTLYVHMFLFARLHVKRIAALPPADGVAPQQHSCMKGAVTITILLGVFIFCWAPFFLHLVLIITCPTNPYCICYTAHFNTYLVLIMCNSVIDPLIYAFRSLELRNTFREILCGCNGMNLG
In short: (§1)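 Cloned human receptor membranes were coated onto FlashPlate wells and incubated with radioligand and compound (added from a 0.5 mM DMSO daughter plate) for 1 hour at room temperature in the dark. Scintillation counting gave percent inhibition, with DMSO defining total and reference ligand defining non-specific binding.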

[3] = biological target: T3, Human δ-opioid (DOP) (Homo sapiens, UniProt P41143); test: Radioligand binding, human δ-opioid (DOP) membranes, FlashPlate, [3H]-Bremazocine
T3 construct: purchased Perkin Elmer Biosignal
T3 sequence (P41143 whole entry): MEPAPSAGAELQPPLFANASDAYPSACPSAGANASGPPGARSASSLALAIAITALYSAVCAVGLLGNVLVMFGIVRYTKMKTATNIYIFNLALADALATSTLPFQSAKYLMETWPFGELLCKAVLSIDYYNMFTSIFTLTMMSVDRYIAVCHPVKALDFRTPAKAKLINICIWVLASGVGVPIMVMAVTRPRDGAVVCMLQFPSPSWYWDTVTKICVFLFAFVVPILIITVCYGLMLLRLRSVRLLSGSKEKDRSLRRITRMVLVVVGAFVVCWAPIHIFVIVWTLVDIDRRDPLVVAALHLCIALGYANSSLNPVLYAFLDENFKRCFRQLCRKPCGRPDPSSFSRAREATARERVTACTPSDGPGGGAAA
In short: as §1

[4] = biological target: T4, Human opioid (ORL1) (Homo sapiens, UniProt P41146); test: Radioligand binding, human opioid ORL1 membranes, FlashPlate, [125I]-Nociceptin
T4 construct: purchased Perkin Elmer Biosignal
T4 sequence (P41146 whole entry): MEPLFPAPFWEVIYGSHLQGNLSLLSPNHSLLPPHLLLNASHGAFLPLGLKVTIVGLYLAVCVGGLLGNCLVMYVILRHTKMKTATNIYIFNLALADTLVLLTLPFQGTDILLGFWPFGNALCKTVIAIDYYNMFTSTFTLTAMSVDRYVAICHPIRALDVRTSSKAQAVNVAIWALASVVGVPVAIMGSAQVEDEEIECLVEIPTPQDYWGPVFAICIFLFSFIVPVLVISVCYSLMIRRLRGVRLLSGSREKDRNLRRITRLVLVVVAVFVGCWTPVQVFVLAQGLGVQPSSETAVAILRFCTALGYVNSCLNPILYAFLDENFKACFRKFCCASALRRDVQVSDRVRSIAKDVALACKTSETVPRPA
In short: as §1

[5] = biological target: T5, Human neurokinin (NK1) (Homo sapiens, UniProt P25103); test: Radioligand binding, human neurokinin NK1 membranes, filtration, [125I]-Substance P
T5 construct: purchased Perkin Elmer Biosignal
T5 sequence (P25103 whole entry): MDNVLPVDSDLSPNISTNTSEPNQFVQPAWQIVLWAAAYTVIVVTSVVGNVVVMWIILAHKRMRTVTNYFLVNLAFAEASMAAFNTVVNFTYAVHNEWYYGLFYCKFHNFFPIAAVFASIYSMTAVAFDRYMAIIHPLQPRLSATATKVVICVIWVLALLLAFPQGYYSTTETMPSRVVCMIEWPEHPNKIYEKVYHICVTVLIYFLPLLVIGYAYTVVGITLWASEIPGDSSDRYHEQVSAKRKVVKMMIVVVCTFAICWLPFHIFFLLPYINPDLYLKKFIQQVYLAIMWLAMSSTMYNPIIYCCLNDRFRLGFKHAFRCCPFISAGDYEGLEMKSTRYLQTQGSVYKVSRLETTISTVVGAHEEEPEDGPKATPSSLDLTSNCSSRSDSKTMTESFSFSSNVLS
In short: (§2)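 Membranes from cloned human receptors were incubated with compound and radioligand for 1 hour at room temperature. Bound ligand was collected on 0.3% PEI-soaked filters, washed with cold 50 mM Tris-HCl pH 7.4, and counted by scintillation. Percent inhibition was computed against DMSO totals and reference-ligand nonspecific wells.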

[6] = biological target: T6, Human neuropeptide Y (NPY-Y1) (Homo sapiens, UniProt P25929); test: Radioligand binding, human neuropeptide Y NPY-Y1 membranes, FlashPlate, [125I]-PYY
T6 construct: purchased Perkin Elmer Biosignal
T6 sequence (P25929 1-384): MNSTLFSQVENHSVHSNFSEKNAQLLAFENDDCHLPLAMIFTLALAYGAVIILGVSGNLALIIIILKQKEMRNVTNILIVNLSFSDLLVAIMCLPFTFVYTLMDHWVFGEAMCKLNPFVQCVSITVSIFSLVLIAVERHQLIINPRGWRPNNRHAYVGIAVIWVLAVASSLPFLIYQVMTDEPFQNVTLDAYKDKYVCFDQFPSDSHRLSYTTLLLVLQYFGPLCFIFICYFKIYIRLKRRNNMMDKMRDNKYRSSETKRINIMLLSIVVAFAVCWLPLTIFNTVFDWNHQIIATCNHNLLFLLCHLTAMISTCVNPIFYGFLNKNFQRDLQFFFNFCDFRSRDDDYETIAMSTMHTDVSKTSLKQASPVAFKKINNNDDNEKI
In short: as §1

[7] = biological target: T7, Human κ-Opioid (KOP) (Homo sapiens, UniProt P41145); test: Radioligand binding, human κ-opioid (KOP) membranes, filtration, [3H]-Diprenorphine
T7 construct: purchased Perkin Elmer Biosignal
T7 sequence (P41145 whole entry): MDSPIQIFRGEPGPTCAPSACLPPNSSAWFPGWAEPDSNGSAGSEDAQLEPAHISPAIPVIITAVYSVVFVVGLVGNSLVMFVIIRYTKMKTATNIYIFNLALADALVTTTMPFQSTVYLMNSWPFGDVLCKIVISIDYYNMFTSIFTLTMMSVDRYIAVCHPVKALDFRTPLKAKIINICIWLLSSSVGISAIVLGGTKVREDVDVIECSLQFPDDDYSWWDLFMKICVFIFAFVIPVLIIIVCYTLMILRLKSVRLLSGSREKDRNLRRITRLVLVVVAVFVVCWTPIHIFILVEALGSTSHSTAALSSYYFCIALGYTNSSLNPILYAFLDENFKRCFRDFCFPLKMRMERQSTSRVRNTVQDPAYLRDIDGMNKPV
In short: as §2

[8] = biological target: T8, Human Melanocortin (MC4) (Homo sapiens, UniProt P32245); test: Radioligand binding, human melanocortin MC4 membranes, FlashPlate, [125I]-NDP-αMSH
T8 construct: purchased Perkin Elmer Biosignal
T8 sequence (P32245 whole entry): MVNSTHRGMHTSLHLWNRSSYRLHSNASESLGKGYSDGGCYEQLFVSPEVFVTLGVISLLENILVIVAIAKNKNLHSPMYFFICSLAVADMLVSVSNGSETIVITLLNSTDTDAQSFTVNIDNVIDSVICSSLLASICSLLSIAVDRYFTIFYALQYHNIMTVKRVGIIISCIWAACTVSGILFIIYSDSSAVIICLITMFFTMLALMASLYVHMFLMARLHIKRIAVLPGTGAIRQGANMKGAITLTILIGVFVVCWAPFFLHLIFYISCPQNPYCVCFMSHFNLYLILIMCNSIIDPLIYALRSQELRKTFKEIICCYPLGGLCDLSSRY
In short: as §1

[9] = biological target: T9, Human μ-opioid (MOP) (Homo sapiens, UniProt P35372); test: Radioligand binding, human μ-opioid (MOP) membranes, FlashPlate, [3H]-Naloxone
T9 construct: purchased Perkin Elmer Biosignal
T9 sequence (P35372 whole entry): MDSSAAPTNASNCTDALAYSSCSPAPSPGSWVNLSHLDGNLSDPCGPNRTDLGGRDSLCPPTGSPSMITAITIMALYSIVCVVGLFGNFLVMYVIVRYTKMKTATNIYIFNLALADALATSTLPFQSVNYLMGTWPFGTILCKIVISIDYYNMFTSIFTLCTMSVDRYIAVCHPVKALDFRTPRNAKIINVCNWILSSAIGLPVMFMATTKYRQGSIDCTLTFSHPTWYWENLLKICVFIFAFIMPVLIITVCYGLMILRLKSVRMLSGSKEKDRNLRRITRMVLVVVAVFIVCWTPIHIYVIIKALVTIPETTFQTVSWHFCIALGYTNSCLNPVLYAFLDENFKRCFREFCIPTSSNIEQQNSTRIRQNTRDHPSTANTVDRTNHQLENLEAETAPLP
In short: as §1

[10] = biological target: T10, Human melanocortin (MC5) (Homo sapiens, UniProt P33032); test: Radioligand binding, human melanocortin MC5 membranes, FlashPlate, [125I]-NDP-αMSH
T10 construct: purchased Perkin Elmer Biosignal
T10 sequence (P33032 whole entry): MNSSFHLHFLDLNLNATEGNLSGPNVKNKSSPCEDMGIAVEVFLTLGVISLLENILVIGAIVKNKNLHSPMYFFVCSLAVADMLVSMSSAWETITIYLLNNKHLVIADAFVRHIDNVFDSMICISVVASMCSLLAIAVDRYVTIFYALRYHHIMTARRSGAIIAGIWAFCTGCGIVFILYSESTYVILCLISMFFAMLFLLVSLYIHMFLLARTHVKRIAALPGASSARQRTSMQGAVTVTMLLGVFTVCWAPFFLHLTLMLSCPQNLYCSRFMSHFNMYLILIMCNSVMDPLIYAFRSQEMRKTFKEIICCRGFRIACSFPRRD
In short: as §1

[11] = biological target: T11, Human melanin-concentrating hormone (MCH1) (Homo sapiens, UniProt Q99705); test: Radioligand binding, human melanin-concentrating hormone MCH1 membranes, FlashPlate, [125I]-S36057
T11 construct: purchased Perkin Elmer Biosignal
T11 sequence (Q99705 whole entry): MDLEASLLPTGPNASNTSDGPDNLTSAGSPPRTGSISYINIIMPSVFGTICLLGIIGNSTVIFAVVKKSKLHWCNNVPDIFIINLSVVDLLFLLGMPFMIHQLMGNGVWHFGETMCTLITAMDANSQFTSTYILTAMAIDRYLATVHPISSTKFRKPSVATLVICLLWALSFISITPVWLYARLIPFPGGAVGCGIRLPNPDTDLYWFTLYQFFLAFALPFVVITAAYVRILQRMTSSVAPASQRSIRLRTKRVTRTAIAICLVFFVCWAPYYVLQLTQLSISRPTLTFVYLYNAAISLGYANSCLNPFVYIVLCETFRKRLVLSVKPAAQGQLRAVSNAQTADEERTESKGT
In short: as §1

CO[C@H]1[C@H](O)[C@@H](COCc2ccc(-c3ccccc3)cc2)OC(OCCc2ccccc2)[C@@H]1NC(=O)CCCN (stereo partly drawn) [compound 111]
A11 radioligand binding, percentage inhibition ([1]; [125I]-Urotensin II): − (“−” indicates less than 50% inhibition at 10 μM)
A3 radioligand binding, percentage inhibition ([2]; [125I]-NDP-αMSH): − (“−” indicates less than 50% inhibition at 10 μM)
A1 radioligand binding, percentage inhibition ([3]; [3H]-Bremazocine): − (“−” indicates less than 50% inhibition at 10 μM)
A10 radioligand binding, percentage inhibition ([4]; [125I]-Nociceptin): − (“−” indicates less than 50% inhibition at 10 μM)
A8 radioligand binding, percentage inhibition ([5]; [125I]-Substance P): + (“+” indicates greater than 50% inhibition at 10 μM)
A9 radioligand binding, percentage inhibition ([6]; [125I]-PYY): − (“−” indicates less than 50% inhibition at 10 μM)
A2 radioligand binding, percentage inhibition ([7]; [3H]-Diprenorphine): − (“−” indicates less than 50% inhibition at 10 μM)
A4 radioligand binding, percentage inhibition ([8]; [125I]-NDP-αMSH): − (“−” indicates less than 50% inhibition at 10 μM)
A7 radioligand binding, percentage inhibition ([9]; [3H]-Naloxone): − (“−” indicates less than 50% inhibition at 10 μM)
A5 radioligand binding, percentage inhibition ([10]; [125I]-NDP-αMSH): − (“−” indicates less than 50% inhibition at 10 μM)
A6 radioligand binding, percentage inhibition ([11]; [125I]-S36057): − (“−” indicates less than 50% inhibition at 10 μM)

COC[C@H]1OC(OCc2ccc(-c3ccccc3)cc2)[C@H](NC(=O)CNC(=N)N)[C@@H](OCc2ccc3ccccc3c2)[C@@H]1O (stereo partly drawn) [compound 3]
A11 radioligand binding inhibition ([1]; mouse urotensin mUR2 membranes): − (“−” indicates less than 50% inhibition at 10 μM)
A3 radioligand binding inhibition ([2]; human melanocortin MC3 membranes): − (“−” indicates less than 50% inhibition at 10 μM)
A1 radioligand binding inhibition ([3]; human δ-opioid (DOP) membranes): − (“−” indicates less than 50% inhibition at 10 μM)
A10 radioligand binding inhibition ([4]; human ORL1 membranes): − (“−” indicates less than 50% inhibition at 10 μM)
A8 radioligand binding inhibition ([5]; human neurokinin NK1 membranes): + (“+” indicates greater than 50% inhibition at 10 μM)
A9 radioligand binding inhibition ([6]; human NPY-Y1 membranes): − (“−” indicates less than 50% inhibition at 10 μM)
A2 radioligand binding inhibition ([7]; human κ-opioid (KOP) membranes): − (“−” indicates less than 50% inhibition at 10 μM)
A4 radioligand binding inhibition ([8]; human melanocortin MC4 membranes): − (“−” indicates less than 50% inhibition at 10 μM)
A7 radioligand binding inhibition ([9]; human μ-opioid (MOP) membranes): − (“−” indicates less than 50% inhibition at 10 μM)
A5 radioligand binding inhibition ([10]; human melanocortin MC5 membranes): + (“+” indicates greater than 50% inhibition at 10 μM)
A6 radioligand binding inhibition ([11]; human MCH1 membranes): + (“+” indicates greater than 50% inhibition at 10 μM)

NCCCC(=O)NC1C(OCc2ccccc2)OC(COCc2ccccc2)C(O)C1OCc1ccccc1 (stereo not drawn) [compound 379]
A11: inhibition of radioligand binding, mouse urotensin (mUR2) ([1]; [125I]-Urotensin II): − (“−” indicates less than 50% inhibition at 10 μM)
A3: inhibition of radioligand binding, human melanocortin (MC3) ([2]; [125I]-NDP-αMSH): − (“−” indicates less than 50% inhibition at 10 μM)
A1: inhibition of radioligand binding, human δ-opioid (DOP) ([3]; [3H]-Bremazocine): − (“−” indicates less than 50% inhibition at 10 μM)
A10: inhibition of radioligand binding, human opioid (ORL1) ([4]; [125I]-Nociceptin): − (“−” indicates less than 50% inhibition at 10 μM)
A8: inhibition of radioligand binding, human neurokinin (NK1) ([5]; [125I]-Substance P): + (“+” indicates greater than 50% inhibition at 10 μM)
A9: inhibition of radioligand binding, human neuropeptide Y (NPY-Y1) ([6]; [125I]-PYY): − (“−” indicates less than 50% inhibition at 10 μM)
A2: inhibition of radioligand binding, human κ-opioid (KOP) ([7]; [3H]-Diprenorphine): − (“−” indicates less than 50% inhibition at 10 μM)
A4: inhibition of radioligand binding, human melanocortin (MC4) ([8]; [125I]-NDP-αMSH): − (“−” indicates less than 50% inhibition at 10 μM)
A7: inhibition of radioligand binding, human μ-opioid (MOP) ([9]; [3H]-Naloxone): − (“−” indicates less than 50% inhibition at 10 μM)
A5: inhibition of radioligand binding, human melanocortin (MC5) ([10]; [125I]-NDP-αMSH): + (“+” indicates greater than 50% inhibition at 10 μM)
A6: inhibition of radioligand binding, human melanin-concentrating hormone (MCH1) ([11]; [125I]-S36057): − (“−” indicates less than 50% inhibition at 10 μM)
